Read-outs that look alike come from different tables or passages of the source.
Legend:
[1] = biological target: deazaflavin (F420) dependent nitroreductase (Ddn) (Mycobacterium tuberculosis, UniProt P9WP15); experiment: activation of nitroimidazoles to NO• by Ddn; format: biochemical; conditions: for activation to NO• by Ddn: FIG. 2; for Ddn mediated production of ^15NO•: FIG. 4
[2] = oral pyrazinamide, metabolite pyrazinoic acid formed by host hepatic microsomal deamidase, cited from earlier work

Chain of deazaflavin (F420) dependent nitroreductase (Ddn) (P9WP15 whole entry): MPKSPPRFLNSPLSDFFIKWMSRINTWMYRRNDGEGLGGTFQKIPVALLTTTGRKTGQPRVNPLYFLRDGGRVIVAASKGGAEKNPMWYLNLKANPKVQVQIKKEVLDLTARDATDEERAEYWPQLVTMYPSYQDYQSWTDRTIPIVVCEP

| Compound | activation to NO• by Ddn [1] | Ddn mediated production of ^15NO• [1] | also measured |
| --- | --- | --- | --- |
| C[C@]1(COc2ccc(N3CCC(Oc4ccc(OC(F)(F)F)cc4)CC3)cc2)Cn2cc([N+](=O)[O-])nc2O1 [OPC67683] | activation of PA824 and OPC67683 to NO• by Ddn |  |  |
| O=[N+]([O-])c1cn2c(n1)OC[C@@H](OCc1ccc(OC(F)(F)F)cc1)C2 [PA824] | activation of PA824 and OPC67683 to NO• by Ddn |  |  |
| NC(=O)c1cnccn1 [PZA, pyrazinamide] |  |  | time of peak POA (metabolite) levels after oral dosage [2]: ~6 h; time of peak POA (metabolite) levels after oral dosage ([2]; listed as pyrazinamide): around six |
| CC1(COc2ccc(N3CCC(Oc4ccc(OC(F)(F)F)cc4)CC3)cc2)Cn2cc([15N+](=O)[O-])nc2O1 (stereo not drawn) [^15N-nitro-OPC67683] |  | Ddn mediated production of ^15NO• |  |
| O=[15N+]([O-])c1cn2c(n1)OC[C@@H](OCc1ccc(OC(F)(F)F)cc1)C2 [^15N-nitro-PA824] |  | Ddn mediated production of ^15NO• |  |

From patent publication US20170010272A1, “RAPID PHENOTYPE TESTS FOR ANTI[…] SENSITIVITY AND RESISTANCE” (STC, UNM, priority 2014, published 2017)
